Columns and labels:
[1] = test system: Human Bronchial Epithelial Cells (HBECs); assay: Inhibition of NRG1β1-induced goblet cell formation (MUC5AC and MUC5B protein by histology) in HBECs; assay type: cell-based; details: inhibitor at 10 μM, NRG1β1 50 nM, 7 days at ALI
Protocol: Human Bronchial epithelial cells (HBECs; Cambrex) were cultured in bronchial epithelial cell growth medium (BEGM; Cambrex) supplemented with the provided singlequots essentially as described in [Atherton et al, 2003]. For differentiation, cells were grown on 0.4 μm pore size, 12 mm TRANSWELL® inserts (Costar) at a cell density of 8.25×10^4 cells/insert in differentiation medium. Differentiation medium contained 50% BEGM and 50% Dulbeccos' modified Eagle's medium (DMEM) and was supplemented with 52 μg/ml bovine pituitary extract, 5 μg/ml insulin, 0.5 μg/ml hydrocortisone, 10 μg/ml transferrin, 0.5 μg/ml epinephrine 0.5 ng/ml human EGF, 50 μg/ml gentamicin and 50 nM retinoic acid. Cells were maintained submerged for 7 days then grown at air-liquid interface (ALI) for 7-14 days and medium was replenished every 2-3 days. […]
After 7 days (unless otherwise stated) of differentiation at ALI, the apical surface of the HBECs was washed gently with PBS and fixed with neutral buffered formalin and wax embedded. […] The area of staining was assessed using a ZEISS® Axioplan 2 microscope (×10 magnification) with an Imaging Associated KS400 image analyzer (Imaging Associates). Fourteen fields were scored for each sample. Data are presented as goblet cell density, which was defined as the ratio of stained area (μm^2) to length (μm) of epithelium scored. […]

[2] = test system: Human Bronchial Epithelial Cells (HBECs); assay: Effect of NRG1 isoforms on MUC5AC and MUC5B protein (goblet cell formation) in HBECs at air-liquid interface, immunohistochemistry; assay type: cell-based; details: HBECs at ALI, 7 days
Protocol: Human Bronchial epithelial cells (HBECs; Cambrex) were cultured in bronchial epithelial cell growth medium (BEGM; Cambrex) supplemented with the provided singlequots essentially as described in [Atherton et al, 2003]. For differentiation, cells were grown on 0.4 μm pore size, 12 mm TRANSWELL® inserts (Costar) at a cell density of 8.25×10^4 cells/insert in differentiation medium. Differentiation medium contained 50% BEGM and 50% Dulbeccos' modified Eagle's medium (DMEM) and was supplemented with 52 μg/ml bovine pituitary extract, 5 μg/ml insulin, 0.5 μg/ml hydrocortisone, 10 μg/ml transferrin, 0.5 μg/ml epinephrine 0.5 ng/ml human EGF, 50 μg/ml gentamicin and 50 nM retinoic acid. Cells were maintained submerged for 7 days then grown at air-liquid interface (ALI) for 7-14 days and medium was replenished every 2-3 days. Cells were treated with NRG1α or NRG1β1 (R&D SYSTEMS®) during the ALI culture period, added to the basolateral chamber of the TRANSWELL® inserts. At all stages cells were maintained at 37° C. in the presence of 5% CO2 in an air incubator.
After 7 days (unless otherwise stated) of differentiation at ALI, the apical surface of the HBECs was washed gently with PBS and fixed with neutral buffered formalin and wax embedded. Inserts were sectioned at 3 μm thickness and stained with either an anti-MUC5AC antibody (45M1; LABVISION®) or anti-MUC5B monoclonal antibodies using a DABMAP protocol on a VENTANA® XT immunostainer and counterstained with 1% alcian blue in 3% acetic acid, pH 2.5. The area of staining was assessed using a ZEISS® Axioplan 2 microscope (×10 magnification) with an Imaging Associated KS400 image analyzer (Imaging Associates). Fourteen fields were scored for each sample. Data are presented as goblet cell density, which was defined as the ratio of stained area (μm^2) to length (μm) of epithelium scored. Custom made anti-MUC5B monoclonal antibodies were obtained from the Hybridoma Core Laboratory, University of Florida and were raised against the peptide SWYNGHRPEPGLG (SEQ ID NO:11).

ErbB2/ErbB3 heterodimer = ErbB2/ErbB3 heterodimer (Homo sapiens, UniProt P21860); details: greater affinity than for ErbB3 homodimers; cited from earlier work
ErbB3 = ErbB3 (Homo sapiens, UniProt P21860); details: higher affinity than NRG1a; cited from earlier work
Sequence of ErbB3 (P21860 20-1342): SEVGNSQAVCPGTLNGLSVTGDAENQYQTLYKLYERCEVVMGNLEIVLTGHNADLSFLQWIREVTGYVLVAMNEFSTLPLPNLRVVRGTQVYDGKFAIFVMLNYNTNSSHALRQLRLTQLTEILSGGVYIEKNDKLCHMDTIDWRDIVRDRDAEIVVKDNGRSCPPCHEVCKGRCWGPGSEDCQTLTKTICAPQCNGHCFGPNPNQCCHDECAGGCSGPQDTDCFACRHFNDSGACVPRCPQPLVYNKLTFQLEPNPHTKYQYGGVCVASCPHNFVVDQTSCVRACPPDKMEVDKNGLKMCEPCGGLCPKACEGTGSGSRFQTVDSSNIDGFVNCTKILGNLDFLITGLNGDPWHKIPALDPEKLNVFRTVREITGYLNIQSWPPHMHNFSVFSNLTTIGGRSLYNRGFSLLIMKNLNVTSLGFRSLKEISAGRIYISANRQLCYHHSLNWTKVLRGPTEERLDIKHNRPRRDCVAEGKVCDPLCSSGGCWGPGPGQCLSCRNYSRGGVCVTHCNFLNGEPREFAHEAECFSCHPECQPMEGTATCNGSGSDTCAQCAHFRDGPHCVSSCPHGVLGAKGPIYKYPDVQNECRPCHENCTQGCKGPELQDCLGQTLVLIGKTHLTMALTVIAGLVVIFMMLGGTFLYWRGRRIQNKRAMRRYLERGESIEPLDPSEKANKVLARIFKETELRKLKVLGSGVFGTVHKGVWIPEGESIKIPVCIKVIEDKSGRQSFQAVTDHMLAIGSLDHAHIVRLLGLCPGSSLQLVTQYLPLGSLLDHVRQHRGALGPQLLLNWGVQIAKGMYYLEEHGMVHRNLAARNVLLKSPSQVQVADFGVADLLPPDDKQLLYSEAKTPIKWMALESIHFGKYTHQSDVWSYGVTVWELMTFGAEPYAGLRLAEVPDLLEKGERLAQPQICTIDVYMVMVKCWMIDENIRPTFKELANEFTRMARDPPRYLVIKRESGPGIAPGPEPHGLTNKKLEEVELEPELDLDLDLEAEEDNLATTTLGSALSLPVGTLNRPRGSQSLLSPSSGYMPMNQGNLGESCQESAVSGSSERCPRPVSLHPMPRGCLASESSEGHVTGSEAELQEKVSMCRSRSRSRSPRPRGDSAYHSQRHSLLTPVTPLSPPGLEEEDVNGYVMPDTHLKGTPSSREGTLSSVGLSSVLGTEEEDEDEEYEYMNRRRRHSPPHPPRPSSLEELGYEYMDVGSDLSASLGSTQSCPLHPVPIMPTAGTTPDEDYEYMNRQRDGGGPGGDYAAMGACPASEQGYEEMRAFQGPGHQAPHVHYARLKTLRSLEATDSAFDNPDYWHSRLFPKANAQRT

Molecule	effect on NRG1β1-induced increase in MUC5AC protein [1]	effect on NRG1β1-induced increase in MUC5B protein [1]	increase in MUC5AC protein over vehicle levels ([2]; 50 nM, histology) [fold]	increase in MUC5B protein ([2]; 50 nM, immunohistochemistry) [fold]	effect on MUC5AC protein ([2]; increasing concentrations, histology)	affinity for the ErbB2/ErbB3 heterodimer relative to ErbB3 homodimers (ErbB2/ErbB3 heterodimer) [fold]	affinity for ErbB3 relative to NRG1a (ErbB3) [fold]
CCN1CCN(Cc2ccc(-c3cc4c(N[C@H](C)c5ccccc5)ncnc4[nH]3)cc2)CC1 [pan-ErbB receptor inhibitor]	significantly inhibited	significantly inhibited					
NRG1β1: Neuregulin-1 isoform β1 protein (R&D SYSTEMS) added to HBEC cultures			3	9.8	dose-dependent increase	100	100

— patent publication US8658165B2, “Method of treating aberrant mucus production in respiratory disease” (Novartis AG, priority 2007, dated 2014)
